Experimental data taken from patent publication US4599327A, “Dibenzo[bd]pyran derivatives, process for the preparation thereof and pharmaceutical compositions containing same” (priority 1982, dated 1986).
Where a name gives a salt, the structure may show the parent alone. Read-outs that look alike come from different tables or passages of the source.

Key:
[1] = literature, cited from earlier work
[2] = cited from earlier work
[3] = literature, Wilson et al.; cited from earlier work
[4] = p.o.; U.S. Pat. No. 3,507,885 compound; cited from earlier work
[5] = hot-plate test using rats (analgesic activity); type: in vivo; settings: for analgesic activity: suspended with 1% methyl cellulose
[6] = narcosis potentiating activity (35 mg/kg of phenobarbital in rats); type: in vivo; settings: i.v.; narcosis time of 35 mg/kg of phenobarbital in rats lengthened by ten times (route printed for CKN-30 complex and morphine)
Experimental: The narcosis time of 35 mg/kg of phenobarbital in rats is lengthened by ten times by using 0.1-0.25 mg/kg i.v. CKN-30 complex or 0.05 mg/kg of CKN-49 complex. In order to achieve similar activity more than 1 mg/kg of i.v. morphine was needed.

[7] = Wilson et al., J. Med. Chem. 19, 1165 (1976)

CCCCCc1cc(O)c2c(c1)OC(C)(C)C1CCC(O)CC21 (stereo not shown)
ED50 (hot plate) [1, 7]: 1.6 mg/kg | ED50 (tail-flick) ([2]; literature, B. R. Martin et al. (1977), levorotatory form): 1.71 mg/kg

CCCCCc1cc(O)c2c(c1)OC(C)(C)[C@@H]1CC[C@@H](O)C[C@@H]21 (relative stereo) [9-nor-9β-hydroxy-hexahydrocannabinol]
ED50 (hot plate) [1, 7]: 2.9 mg/kg | ED50 (hot plate) ([1]; aqueous suspension containing Emulphor emulsifying agent and ethanol): 2.9 mg/kg | analgesic strength [3]: as strong as morphine

CCCCCCC(C)(C)c1cc(O)c2c(c1)OC(C)(C)[C@@H]1CC[C@@H](O)C[C@@H]21 (relative stereo) [(±)-1,9β-dihydroxy-6,6-dimethyl-3-(1,1-dimethyl-1-heptyl)-6aβ,7,8,9,10,10aα-hexahydro-6H-dibenzo(bd)-pyrane]
ED50 (mouse writhing) [4]: 1.25 mg/kg | ED50 (tail-flick) ([2]; p.o., U.S. Pat. No. 3,507,885 compound): 0.1 to 5 mg/kg

COCCCC(C)c1cc(O)c2c(c1)OC(C)(C)[C@@H]1CC[C@@H](O)C[C@@H]21 (relative stereo) [CKN-30, (±)-1,9β-dihydroxy-6aβ,7,8,9,10,10aα-hexahydro-6,6-dimethyl-3-[(2RS)-5-methoxy-2-pentyl]-6H-dibenzo[bd]pyrane]
analgesic activity [5]: moderate analgesic activity

CCOCCCC(C)c1cc(O)c2c(c1)OC(C)(C)[C@@H]1CC[C@@H](O)C[C@@H]21 (relative stereo) [CKN-49, (±)-1,9β-dihydroxy-6aβ,7,8,9,10,10aα-hexahydro-6,6-dimethyl-3-[(2RS)-5-ethoxy-2-pentyl]-6H-dibenzo[bd]pyrane]
analgesic activity [5]: moderate analgesic activity

CN1CC[C@]23c4c5ccc(O)c4O[C@H]2[C@@H](O)C=C[C@H]3[C@H]1C5 [morphine. HCl]
ED50 (hot plate) [1, 7]: 1.2 mg/kg

CN1CC[C@]23c4c5ccc(O)c4O[C@H]2[C@@H](O)C=C[C@H]3[C@H]1C5 [morphine]
ED50 ([5]; i.v.): 3.6 mg/kg | ED50 ([5]; s.c.): 4.6 mg/kg | dose lengthening the narcosis time by ten times [6]: more than 1 mg/kg
